Here are results for 9 compounds from paper PMC2113781 (The Journal of Cell Biology, 1985).

One test deals with muscarinic binding sites. The arrangement: species or system chick.
In test [1] the test system is muscarinic cholinergic receptor. The test is classed as cell-based, chick.

“And” between values parts separate entries of the source, which are not always exact repeats. Identical values can stand only once.

As to `CC(=O)OCC[N+](C)(C)C` [Acetylcholine, acetylcholine], in the test on muscarinic binding sites, the “RH, two-sites model” value is 15.3 pmol/L and 20.9 pmol/L; the “RL, two-sites model” value was 13.8 pmol/L and 19.4 pmol/L; the “nH, phenomenological cooperativity model (Hill coefficient)” value (shortened to “nH, phenomenological cooperativity model”) is 0.41 and 0.39. Moreover, in test [1], the “Effect relative to acetylcholine” value turned out to be 100% and the “agonistic effect on Ca2+ mobilization” value is recorded as “full agonists”.
`CN1[C@@H]2CC[C@H]1C[C@@H](OC(=O)C(CO)c1ccccc1)C2` (some centres unmarked) [Atropine, atropine]: in the test with muscarinic binding sites, the “nH, phenomenological cooperativity model” value worked out at 0.79.
Regarding `CC(C[N+](C)(C)C)OC(N)=O` (centres unmarked) [Bethanechol, bethanechol], in the test on muscarinic binding sites, the “RH, two-sites model” value is 9.1 pmol/L; the “RL, two-sites model” value was determined as 19.9 pmol/L; the “nH, phenomenological cooperativity model” value is given as 0.65. In test [1], the “Effect relative to acetylcholine” value turned out to be 23%, the “agonistic effect on Ca2+ mobilization” value is listed as “partial agonist” and the type of antagonism entry is recorded as “reversible competitive antagonists”.
Consider `C[N+](C)(C)CCOC(N)=O` [Carbachol, carbachol], for which, in the test with muscarinic binding sites, the “RH, two-sites model” value was 14.6 pmol/L; the “RL, two-sites model” value was found to be 18.4 pmol/L; the “nH, phenomenological cooperativity model” value stood at 0.41. For the same compound, in test [1], the “Effect relative to acetylcholine” value stood at 92% and the “agonistic effect on Ca2+ mobilization” value is “full agonists”.
With `O=C1CC[C@@](c2ccccc2)(C2CCN(Cc3ccccc3)CC2)C(=O)N1` [Dexetimide, dexetimide], the “nH, phenomenological cooperativity model” value in the test with muscarinic binding sites is listed as 0.63. Moreover, in test [1], the type of antagonism result is given as “irreversible competitive antagonists”.
On the same counts, the results for `O=C1CC[C@](c2ccccc2)(C2CCN(Cc3ccccc3)CC2)C(=O)N1` [Levetimide, levetimide] are 0.76 and “reversible competitive antagonists”.
On to `O=C1CCCN1CC#CCN1CCCC1` [Oxotremorine, oxotremorine], for which the “nH, phenomenological cooperativity model” value with muscarinic binding sites was determined as 0.95. In addition, in test [1], the “agonistic effect on Ca2+ mobilization” value is listed as “No reaction” and the type of antagonism result is given as “reversible competitive antagonists”.
On the same counts, the results for `CC[C@@H]1C(=O)OC[C@@H]1Cc1cncn1C` [Pilocarpine, pilocarpine] are 0.68, “No reaction” and “reversible competitive antagonists”.
Regarding `CN1CCN(CC(=O)N2c3ccccc3C(=O)Nc3cccnc32)CC1` [Pirenzepine, pirenzepine], in the test with muscarinic binding sites, the “nH, phenomenological cooperativity model” value is on record as 1.31. Also, the type of antagonism result in test [1] was “reversible competitive antagonists”.
